Laboratory results from patent publication US20210369675A1, “ANTIMICROBIAL DRUG METHODS OF USE & THERAPEUTIC COMPOSITIONS” (priority 2017, published 2021).
“Also recorded” adds a separate entry of the source.

Legend:
[1] = tested on: Burkholderia pseudomallei; type: cell-based
[2] = cited from earlier work; for elimination half-life (T1/2): after a single administration of rac-ornidazole in a formulation; for AUC0-∞: after a single administration
[3] = current 300 mg capsule formulation, per product label; cited from earlier work
[4] = tested on: Burkholderia pseudomallei; conditions: cited from earlier work
[5] = tested on: Brucella melitensis; conditions: cited from earlier work

Compound: Cc1ncc([N+](=O)[O-])n1CC(O)CCl (racemic) [(rac)-ornidazole, 1-chloro-3-(2-methyl-5-nitro-1H-imidazol-1-yl)propan-2-ol]
- inhibition of B. pseudomallei grown under anaerobic conditions [1]: inhibition; also recorded: effectively inhibited

Compound: Cc1ncc([N+](=O)[O-])n1C[C@@H](O)CCl [(R)-ornidazole]
- elimination half-life (T1/2) [2]: similar
- AUC0-∞ [2]: similar

Compound: Cc1ncc([N+](=O)[O-])n1C[C@H](O)CCl [(S)-ornidazole]
- elimination half-life (T1/2) [2]: similar
- AUC0-∞ [2]: similar

Compound: C[C@H](CCC(=O)O)[C@H]1CC[C@H]2[C@@H]3[C@@H](O)C[C@@H]4C[C@H](O)CC[C@]4(C)[C@H]3CC[C@]12C [Ursodiol, ursodeoxycholic acid]
- fraction of drug absorbed in the small intestines (small bowel) [3]: 90%
- fraction of drug reaching the colon [3]: less than 10%

Compound: CC(C)(O/N=C(\C(=O)N[C@@H]1C(=O)N2C(C(=O)[O-])=C(C[n+]3ccccc3)CS[C@H]12)c1csc(N)n1)C(=O)O [ceftazidime]
- effectiveness of conventional antibiotics against B. pseudomallei [4]: not effective
- effectiveness of conventional antibiotics against B. melitensis [5]: not effective

Compound: O=C(N[C@H](CO)[C@H](O)c1ccc([N+](=O)[O-])cc1)C(Cl)Cl [chloramphenicol]
- effectiveness of conventional antibiotics against B. pseudomallei [4]: not effective
- effectiveness of conventional antibiotics against B. melitensis [5]: not effective

Compound: trimethoprim-sulfamethoxazole
- effectiveness of conventional antibiotics against B. pseudomallei [4]: not effective
- effectiveness of conventional antibiotics against B. melitensis [5]: not effective
